{
  "source": "paper PMC9122897",
  "about": "“SHR1032, a novel STING agonist, stimulates anti-tumor immunity and directly induces AML apoptosis” (Scientific Reports, 2022)",
  "key": {"[1]": {"tested_on": "MV4-11 cells", "experiment": "CellTiter-Glo cell growth", "type": "cell-based", "conditions": "Homo sapiens; MV4-11, CellTiter Glo", "procedure": "(§1) (a–d) AML cells were treated with STING agonists and standard of care cytarabine, and cell viability was measured by CellTiter Glo in (a) THP1-STING-R232, (b) THP1-STING-KO, (c) MV-4-11 and (d) MOLM-16. (e) MV-4-11, MOLM-16 and THP1-STING-KO cells were stimulated with 1 µM of SHR1032 for the indicated time points. The amount of pTBK1, total TBK1, pSTING, total STING and α-tubulin was measured by Western blot. pSTING phosphorylated STING. THP1 reporter cells were treated for 24 h with a total of 100 k cells and 150 ul media in each well a 96-well plate. Following the incubation, 20 µl of supernatant was transferred to an opaque 96 well ½ area plate and incubated for 30 s with 50 µl of QUANTI-Luc substrate (InvivoGen) per manufacturer’s instructions. Luminescence signal was measured using Tecan infinite M1000. EC50 values were calculated using non-linear regression analysis of GraphPad Prism. Cell growth was monitored by CellTiter-Glo Luminescent Cell Viability Assay (Promega) per manufacture’s protocol. GI50 values were calculated using non-linear regression analysis of GraphPad Prism. Cell lysates for western blotting were made in RIPA buffer (Sigma) with Halt Protease and Phosphatase Inhibitors (Thermo Scientific). Antibodies against pSTING, TBK1, pTBK1 and tubulin were purchased from Cell Signaling Technologies, and anti-STING was purchased from Protein Tech."}, "[2]": {"tested_on": "MOLM-16 cells", "experiment": "CellTiter-Glo cell growth", "type": "cell-based", "conditions": "Homo sapiens, MOLM16; MOLM-16, CellTiter Glo", "procedure": "as §1"}, "[3]": {"biological_target": "T1, human STING (Homo sapiens, UniProt Q86WV6)", "T1 construct": "made in house; host or cells: E. coli", "T1 sequence (Q86WV6 155-341 limits assumed)": "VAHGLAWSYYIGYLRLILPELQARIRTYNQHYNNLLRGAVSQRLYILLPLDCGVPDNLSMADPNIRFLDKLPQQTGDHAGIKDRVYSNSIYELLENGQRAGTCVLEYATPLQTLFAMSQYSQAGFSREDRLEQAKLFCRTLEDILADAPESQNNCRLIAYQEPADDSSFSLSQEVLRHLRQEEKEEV", "experiment": "Thermal shift assay", "type": "binding", "conditions": "human STING protein 5 uM; ligand bound vs apo", "source_text": "We sought to develop small molecule compounds with increased STING agonist activity against human STING. GSK reported a series of non-CDN small molecules, represented by compound 1[13], with good human STING agonistic activity. Based on our molecular modeling analysis, along with the reported CDN-STING crystal structures, we designed a novel series of fused tricyclic heterocycle compounds and analyzed their binding to human STING with thermal shift assays and the potency in activation of STING signaling with a reporter cellular assay (Supplementary Table S1). Thermal shift assays measure the difference between apo STING and ligand bound STING in the inflection point at which 50% of protein is thermally unfolded (ΔTm). […] The ability of compounds to activate the IRF reporter gene in the THP1 cells was also evaluated.\nThe melting temperature (Tm) of human STING was determined by calculating the temperature at the inflection point of the thermal melt curve generated on a Roche LightCycler 480 using 384 plate format and 465–590 nm filter set. […] Florescence was measured while ramping the plate temperature from 20 to 95 °C and the resulting data was processed using ROCHE data analysis software. Delta Tms were calculated by subtracting the Tm of untreated protein from ligand treated samples. […]"}},
  "data": [
    {"smiles": "CCn1nc(C)cc1C(=O)Nc1nc2cc(C(N)=O)cc(OC)c2n1CCC[C@H]1COc2cc(C(N)=O)cc3nc(NC(=O)c4cc(C)nn4CC)n1c23", "note": "[SHR1032]", "values": [
      {"measurement": "GI50", "setting": "[1]", "result": 1, "unit": "nM"},
      {"measurement": "GI50", "setting": "[2]", "result": 2.6, "unit": "nM"},
      {"measurement": "Thermal shift ∆Tm", "setting": "[3]", "result": 10.7, "unit": "°C"}
    ]}
  ]
}
